# Measured values as given in PMC11129181, “Histidine-Covalent Stapled Alpha-Helical Peptides Targeting hMcl-1” (Journal of Medicinal Chemistry, 2024).
# Read-outs that look alike come from different tables or passages of the source. Marks after values point to notes of the source that are not given here. Positions of bridges follow the written chain, without caps; N, C: chain ends. Non-standard residues stand in square brackets, D forms with d. Residues, ends and D or L forms follow the SMILES beside them. *: point of attachment. Benzoyl(2-OMe,5-SO2F) = COc1ccc(S(=O)(=O)F)cc1C(=O)*; Ala(1H-tetrazol-5-yl) = N[C@@H](Cc1nnn[nH]1)C(=O)O; S5 = C=CCCC[C@](C)(N)C(=O)O; Dap = NC[C@H](N)C(=O)O
# Experiments:
# A549 NucLight Red cells = experiment: Lytic effect on A549 NucLight Red cells (IncuCyte S3); type: cell-based, human; conditions: for lytic effect on A549 NucLight Red cells: 100 μM, images 20 min after exposure; for lytic effect on A549 cells: high concentrations, nearly immediate cell bursting after exposure, fluorescence microscopy
# Description: Amphipathic alpha-helical peptides have been reported to cause nonspecific membrane disruption events due to their constrained helical structure and amino acid composition.[2],[5],[37],[38] Lytic peptides in fact are highly efficient at binding and disrupting the negatively charged membrane of cells, as they are usually amphipathic and positively charged.[2],[5],[37],[38] Key determinants for cell permeability and the lytic effect are the combination of relatively high hydrophobic content and the number of positively charged residues in addition to the position of the staple within the alpha-helical peptide. Therefore, our design strategy included peptides with varying net charges and explored different positions of the staple within the peptide (Tables 1 and 2; Figure 2). To assess cellular permeability and to detect eventual nonspecific cell lytic effects, we tested selected stapled covalent peptides against the human nonsmall cell lung cancer (NSCLC) cell line A549 (Figure 7). To enhance live cell analysis, we used a cell line that was fluorescently labeled (A549 NucLight Red cells, Essen Bioscience), and cells were monitored for cell lysis via fluorescence microscopy using the IncuCyte S3 live-cell analysis system (Figure 7). […] Considering those data, together with the affinity for hMcl-1(172–323), alpha-helical content (Table 2), and covalent complex formation as detected by SDS gel electrophoresis, mass spectrometry, NMR, and X-ray crystallography, we selected agent 155H1, which was further tested in preliminary cell permeability and cellular efficacy studies.
# Figure 7 Lytic effect of stapled peptides on the NSCLC A549 NucLight Red cells detected via the IncuCyte S3 live-cell analysis system. The schematic illustrations depict the lytic (panel A) and nonlytic (panel B) effects of stapled agents on the cells. Representative images of cells collected 20 min after exposure to 100 μM lytic stapled compound 1 (panel A) or nonlytic stapled peptide 155H1 (panel B), along with untreated (DMSO only) cells as a control. Note: Images were taken 20 min after plates were placed inside the IncuCyte S3 to minimize condensation that can affect image quality. The scale bar denotes 100 μm.
# Nonsmall cell lung cancer (NSCLC) A549 NucLight Red cells were purchased from Essen Bioscience and cultured in Ham’s F-12 nutrient mixture with GlutaMAX-1 (Gibco) supplemented with 10% FBS and 0.5 μg/mL puromycin. Cells were maintained in a humidified incubator at 37 °C in 5% CO2. These cells have nuclei-fluorescently labeled red. Anti-hMcl-1 and anti-β-tubulin antibodies were purchased from Cell Signaling Technology (#5453) and Santa Cruz Biotechnology (sc-58884), respectively. HRP-conjugated goat antimouse and antirabbit secondary antibodies were purchased from ThermoFisher Scientific.
# hMcl-1(172–323) = target: T1, hMcl-1(172–323) (Homo sapiens, UniProt Q07820); experiment: DELFIA displacement of biotinylated-BH3 peptide from hMcl-1(172–323); type: binding
# T1 construct: made in house; host or cells: E. coli BL21 (DE3) gold pLysS
# Description: At the end of a 2 h incubation, plates were washed 3 times. Subsequently, a solution of 6His-tagged-hMcl-1(172–323) or 6His-tagged-hBfl-1(1–149) protein and the test peptides were preincubated for 2 h and added to the washed streptavidin-coated plates along with a Eu–N1-labeled anti-6xHis antibody (PerkinElmer, 1:2000) solution and further incubated for 2 h on a microplate shaker. Plates were then washed 3 times, and each well was incubated with 200 μL of the enhancement solution (PerkinElmer) for 10 min. Fluorescent readings (VICTOR X5 microplate reader) were then measured by using the excitation and emission wavelengths of 340 and 615 nm, respectively. Fluorescent counts were normalized to those of DMSO wells and reported as % inhibition, and Prism 10 (GraphPad) was used to calculate the IC50 values. Protein, peptide, and antibody solutions were prepared in a DELFIA assay buffer (PerkinElmer), and all of the incubations were performed at room temperature. Each well received a final DMSO concentration of 1%. The final concentrations of 6His-tagged-hMcl-1(172–323) and 6His-tagged-hBfl-1(1–149) used were 16 and 15 nM, respectively.
# [1] = Aqueous solubility (observation); type: physicochemical; conditions: observed during CD measurements
# Description: (§1) Furthermore, to verify that the peptides preferentially assumed a stabilized alpha-helical conformation in the stapled version compared to the linear peptide, we performed CD measurements. Typical curves for the linear peptide (138E12, blue) and a stapled peptide (155H1, red) are reported in Figure 3, while CD data for all other peptides are reported as the Supporting Information (Supporting Figures S3–S14). Using these measurements and the software BeStSel (https://bestsel.elte.hu),[34] we could calculate the percentage of alpha-helical content for each peptide (Table 2). Most stapled peptides, perhaps except compound 4 and compound 7, assumed nearly complete alpha-helical conformation in aqueous buffer (Table 2 and Supporting Figures S3–S14).
# [2] = Circular dichroism, percentage of alpha-helix (BeStSel); type: physicochemical; conditions: 25 °C
# Description: as §1
# Circular dichroism spectra were acquired on a Jasco 815 spectropolarimeter. Samples were prepared in MQ Water or in 15 mM phosphate buffer, pH 7.5. The experiments were conducted at 25 °C, using a 1 mm-path length quartz cell to record data from 190 to 260 nm in 1 nm increments. The response time was 2 s. The data were then converted to Δε(M^–1·cm^–1), and the percentage of alpha-helix was calculated using BeStSel (https://bestsel.elte.hu) software.[34]
# [3] = DELFIA displacement assay, n = 2, 16 nM 6His-hMcl-1(172–323), protein and peptide preincubated 2 h, room temperature, 1% DMSO, read-out: IC50 (nM) hMcl-1(172–323)
# T1 sequence (Q07820 172-323): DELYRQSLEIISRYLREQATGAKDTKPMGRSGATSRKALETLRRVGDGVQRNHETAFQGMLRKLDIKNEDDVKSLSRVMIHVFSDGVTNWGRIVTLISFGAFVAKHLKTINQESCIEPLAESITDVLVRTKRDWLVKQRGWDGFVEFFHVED
compound,measurement,setting,value
"CC[C@H](C)[C@H](NC(=O)[C@H](CNC(=O)c1cc(S(=O)(=O)F)ccc1OC)NC(C)=O)C(=O)N[C@@H](C)C(=O)N[C@@H](CCC(=O)O)C(=O)N[C@@H](CCC(N)=O)C(=O)N[C@@H](CC(C)C)C(=O)N[C@@H](CCCNC(=N)N)C(=O)N[C@@]1(C)CCC/C=C\CCC[C@@](C)(C(=O)N[C@@H](Cc2ccccc2)C(N)=O)NC(=O)[C@H](CC(=O)O)NC(=O)CNC(=O)[C@H]([C@@H](C)CC)NC1=O [11 (155H1)] (Ac-[Dap](Benzoyl(2-OMe,5-SO2F))IAEQLR[S5]IGD[S5]F-NH2; staple (Z) 8-12)",lytic effect on A549 NucLight Red cells,A549 NucLight Red cells,nonlytic
"CC[C@H](C)[C@H](NC(=O)[C@H](CCCNC(=N)N)NC(=O)[C@H](CCCNC(=N)N)NC(=O)[C@H](CC(C)C)NC(=O)[C@H](CCC(N)=O)NC(=O)[C@]1(C)CCC/C=C/CCC[C@](C)(NC(C)=O)C(=O)N[C@@H](CNC(=O)c2cc(S(=O)(=O)F)ccc2OC)C(=O)N[C@@H]([C@@H](C)CC)C(=O)N[C@@H](C)C(=O)N1)C(=O)NCC(=O)N[C@@H](CC(=O)O)C(=O)N[C@@H](CCCNC(=N)N)C(=O)N[C@@H](Cc1ccccc1)C(N)=O [compound 1] (Ac-[S5][Dap](Benzoyl(2-OMe,5-SO2F))IA[S5]QLRRIGDRF-NH2; staple (E) 1-5)",lytic effect on A549 NucLight Red cells,A549 NucLight Red cells,lytic
same,lytic effect on A549 cells,A549 NucLight Red cells,lytic effect was observed
"CC[C@H](C)[C@H](NC(=O)[C@H](CCCNC(=N)N)NC(=O)[C@H](CCCNC(=N)N)NC(=O)[C@H](CC(C)C)NC(=O)[C@H](CCC(N)=O)NC(=O)[C@]1(C)CCC/C=C/CCC[C@](C)(NC(C)=O)C(=O)N[C@@H](CNC(=O)c2cc(S(=O)(=O)F)ccc2OC)C(=O)N[C@@H]([C@@H](C)CC)C(=O)N[C@@H](C)C(=O)N1)C(=O)NCC(=O)N[C@@H](Cc1nn[nH]n1)C(=O)N[C@@H](CCCNC(=N)N)C(=O)N[C@@H](Cc1ccccc1)C(N)=O [compound 2] (Ac-[S5][Dap](Benzoyl(2-OMe,5-SO2F))IA[S5]QLRRIG[Ala(1H-tetrazol-5-yl)]RF-NH2; staple (E) 1-5)",IC50,hMcl-1(172–323),633 ± 30 nM
same,lytic effect on A549 cells,A549 NucLight Red cells,lytic effect was observed
"CC[C@H](C)[C@H](NC(=O)[C@H](C)NC(=O)[C@H](CCCNC(=N)N)NC(=O)[C@H](CC(C)C)NC(=O)[C@H](CCC(N)=O)NC(=O)[C@]1(C)CCC/C=C/CCC[C@](C)(NC(C)=O)C(=O)N[C@@H](CNC(=O)c2cc(S(=O)(=O)F)ccc2OC)C(=O)N[C@@H]([C@@H](C)CC)C(=O)N[C@@H](C)C(=O)N1)C(=O)NCC(=O)N[C@@H](CC(=O)O)C(=O)N[C@@H](C)C(=O)N[C@@H](Cc1ccccc1)C(N)=O [compound 4] (Ac-[S5][Dap](Benzoyl(2-OMe,5-SO2F))IA[S5]QLRAIGDAF-NH2; staple (E) 1-5)",aqueous solubility,[1],limited aqueous solubility
"CC[C@H](C)[C@H](NC(=O)[C@H](CNC(=O)c1cc(S(=O)(=O)F)ccc1OC)NC(C)=O)C(=O)N[C@@H](C)C(=O)N[C@@]1(C)CCC/C=C\CCC[C@@](C)(C(=O)N[C@H](C(=O)NCC(=O)N[C@@H](CC(=O)O)C(=O)N[C@@H](C)C(=O)N[C@@H](Cc2ccccc2)C(N)=O)[C@@H](C)CC)NC(=O)[C@H](CCCNC(=N)N)NC(=O)[C@H](CC(C)C)NC(=O)[C@H](CCC(N)=O)NC1=O [compound 7] (Ac-[Dap](Benzoyl(2-OMe,5-SO2F))IA[S5]QLR[S5]IGDAF-NH2; staple (Z) 4-8)",aqueous solubility,[1],limited aqueous solubility
"Ac-Dap(2MeO,5FSB)IAEQLRRIGDRF-CONH2 (Ac-[Dap](2‑methoxy‑5‑fluorosulfonylbenzoyl)IAEQLRRIGDRF-NH2) [138E12, previously reported linear Lys 234-covalent BH3 peptide with aryl-sulfonyl fluoride, reference compound]",IC50,hMcl-1(172–323); [3],18 ± 4 nM
"Ac-Dap(2MeO,5FSB)IAEQLRRIGDRF-CONH2 [138E12, previously reported linear Lys 234-covalent BH3 peptide with aryl-sulfonyl fluoride, reference compound]",% alpha-helix,"[2]; CD spectra measured both in water and in 15 mM phosphate buffer pH 7.5, BeStSel",48.3 ^b %
"Ac-Dap(2MeO,5FSB)IXEQLXRIGDRF-CONH2 (sidechain bridge or staple) ({Ac-Dap(2MeO,5FSB)}-I[S5]EQL[S5]RIGDRF-NH2; staple 2-6) [compound 10, stapled covalent BH3 peptide, staple at positions 4 and 8]",% alpha-helix,"[2]; CD, 190–260 nm, MQ water or 15 mM phosphate buffer pH 7.5, calculated using BeStSel",100%
same,IC50,hMcl-1(172–323); [3],174 ± 1 nM
